Measured values from the NIST ThermoML archive (doi:10.1021/je800077r).
± gives the expanded uncertainty stated by the source.

Tests used:
[1] = xn = mol fraction of the nth substance listed; settings: 101 kPa, Liquid; for speed of sound: Sing-around technique in a fixed-path interferometer; for mass density: Vibrating tube method
[2] = refractive index (Na D-line) (dimensionless); xn = mol fraction of the nth substance listed; settings: 101 kPa, Liquid, Standard Abbe refractometry

speed of sound ([1]; 293.15 K, x1 = 1) [m/s]	mass density ([1]; 293.15 K, x1 = 1) [kg/m3]	speed of sound ([1]; 298.15 K, x1 = 1) [m/s]	mass density ([1]; 298.15 K, x1 = 1) [kg/m3]	speed of sound ([1]; 303.15 K, x1 = 1) [m/s]	mass density ([1]; 303.15 K, x1 = 1) [kg/m3]	refractive index ([2]; 293.15 K, x1 = 1)	refractive index ([2]; 298.15 K, x1 = 1)	refractive index ([2]; 303.15 K, x1 = 1)	SMILES	speed of sound ([1]; 293.15 K, x2 = 0) [m/s]	mass density ([1]; 293.15 K, x2 = 0) [kg/m3]	speed of sound ([1]; 298.15 K, x2 = 0) [m/s]	mass density ([1]; 298.15 K, x2 = 0) [kg/m3]	speed of sound ([1]; 303.15 K, x2 = 0) [m/s]	mass density ([1]; 303.15 K, x2 = 0) [kg/m3]	refractive index ([2]; 293.15 K, x2 = 0)	refractive index ([2]; 298.15 K, x2 = 0)	refractive index ([2]; 303.15 K, x2 = 0)
–	–	–	–	–	–	–	–	–	CCOC(C)=O [ethyl acetate] + CCCCCCn1cc[n+](C)c1.F[P-](F)(F)(F)(F)F	1162 ± 1	900.5 ± 0.1	1141 ± 1	894.4 ± 0.1	1111 ± 1	888.2 ± 0.1	1.37241 ± 0.00061	1.36977 ± 0.00061	1.36712 ± 0.00062
1100 ± 2	659.5 ± 0.3	1078 ± 2	654.9 ± 0.3	1055 ± 2	650.4 ± 0.3	1.37495 ± 0.00067	1.37217 ± 0.00067	1.36936 ± 0.00067	CCCCCC [hexane] + CCOC(C)=O	–	–	–	–	–	–	–	–	–
